Data: ChEMBL document CHEMBL1156251, “Structure--activity relationships of polymyxin antibiotics” (J Med Chem, 2010)
≈ marks a conversion by molar mass, not a printed value. Where a SMILES comes first, the peptide text is derived from it. Bridges are numbered along the chain shown (N, C = ends). [ ]: non-standard residue; d: D form. The star is where a group is joined. Octanoyl = CCCCCCCC(=O)*; Dab = NCC[C@H](N)C(=O)O

Columns and labels:
Mus musculus [1] = organism: Mus musculus; experiment: (§1) Toxicity in mouse; type: organism-based; settings: in vivo
Lipopolysaccharide (LPS) = experiment: Displacement of dansyl-PMB from LPS by isothermal titration calorimetry
Mus musculus [2] = experiment: (§2) Toxicity in iv dosed CF1 mouse; type: organism-based; settings: mouse, in vivo
Mus musculus [3] = experiment: Acute toxicity in iv dosed mouse; type: organism-based; settings: in vivo
Escherichia coli [4] = experiment: Antimicrobial activity against Escherichia coli; type: functional
Salmonella enterica = experiment: Antimicrobial activity against Salmonella enterica; type: functional
Pseudomonas aeruginosa [5] = system: Pseudomonas aeruginosa
Pseudomonas aeruginosa [6] = experiment: Antimicrobial activity against Pseudomonas aeruginosa; type: functional, organism-based
Klebsiella pneumoniae = experiment: Antimicrobial activity against Klebsiella pneumoniae; type: functional
[7] = as §2; type: organism-based; settings: CF1, mouse, in vivo
Mus musculus [8] = experiment: Protective activity in sc dosed CF1 mouse; settings: in vivo
[9] = as §1; type: organism-based; settings: in vivo
Escherichia coli [10] = experiment: Antimicrobial activity against Escherichia coli assessed as relative sensitizing activity; type: functional
Staphylococcus aureus = experiment: Antimicrobial activity against Staphylococcus aureus; type: functional
Escherichia coli [11] = experiment: Antimicrobial activity against PMB-susceptible Escherichia coli SC9251; type: functional
Escherichia coli [12] = experiment: Antimicrobial activity against PMB-resistant Escherichia coli SC9253; type: functional

Row | Compound | IC50 (Lipopolysaccharide (LPS)) [µM] | LD50 (Mus musculus [3]) [µM/g] | MIC (Escherichia coli [4]) | MIC (Salmonella enterica) [µM] | MIC (Pseudomonas aeruginosa [6]) | MIC (Staphylococcus aureus) [µg/mL] | also measured
1 | POLYMYXIN B [listing 1 of 2 here] | 4 | 4.8 | – | – | – | – | LD50 (Mus musculus [1]): 9 mg/kg; LD50 (Mus musculus [2]): 9 mg/kg
2 | POLYMYXIN B [listing 2 of 2 here] | – | – | 1 µM | 1 | – | – | MIC (Pseudomonas aeruginosa [5]): 1 µM
3 | CC(C)C[C@@H]1NC(=O)[C@@H](Cc2ccccc2)NC(=O)[C@H](CCN)NC(=O)[C@@H](NC(=O)[C@H](CCN)NC(=O)[C@@H](NC(=O)[C@H](CN)NC(=O)O)[C@@H](C)O)CCNC(=O)[C@H]([C@@H](C)O)NC(=O)[C@H](CCN)NC(=O)[C@H](CCN)NC1=O [DESFA-[DIAMINOPROPANOIC ACID1]POLYMYXIN B] | 14 | 23.5 | 8 µM | 16 (≈ 17.5 µg/mL) | 1 µM | – | –
4 | CCCCCCCC(=O)N[C@@H](CCN)C(=O)N[C@H](C(=O)N[C@@H](CCN)C(=O)N[C@H]1CCNC(=O)[C@H]([C@@H](C)O)NC(=O)[C@H](CCNC(=O)[C@@H](N)CCCNC(=N)N)NC(=O)[C@H](CCN)NC(=O)[C@H](CC(C)C)NC(=O)[C@@H](Cc2ccccc2)NC(=O)[C@H](CCN)NC1=O)[C@@H](C)O (Octanoyl-[Dab]T[Dab][Dab][Dab][dF]L[Dab][Dab](Arg)T; lactam 4-C) | – | – | 0.16 µg/mL | – | 0.03 µg/mL | – | MIC (Klebsiella pneumoniae): 2 µg/mL (≈ 1.49 µM); LD50 [7]: 15 mg/kg; PD50 (Mus musculus [8]): 0.25 mg/kg
5 | CC(C)C[C@@H]1NC(=O)[C@@H](Cc2ccccc2)NC(=O)[C@H](CCN)NC(=O)[C@@H](NC(=O)[C@H](CCN)NC(=O)[C@@H](N)[C@@H](C)O)CCNC(=O)[C@H]([C@@H](C)O)NC(=O)[C@H](CCN)NC(=O)[C@H](CCN)NC1=O (stereo in doubt; 193) [POLYMYXIN B NONAPEPTIDE] | – | – | – | – | – | – | LD50 [9]: 43 mg/kg; IC50 (Lipopolysaccharide (LPS); read-out: IC50): 2.5 µM; Activity (Escherichia coli [10]): 100%
6 | CCCCCCCCCC(=O)N[C@H](C(=O)N[C@@H](CCN)C(=O)N[C@H]1CCNC(=O)[C@H]([C@@H](C)O)NC(=O)[C@H](CCN)NC(=O)[C@H](CCN)NC(=O)[C@H](CC(C)C)NC(=O)[C@@H](Cc2ccccc2)NC(=O)[C@H](CCN)NC1=O)[C@@H](C)O [DECANOYL POLYMIXIN B NONAPEPTIDE] | – | – | 1 µg/mL | – | 2 µg/mL | ≥ 16 | –
7 | CC(C)CCCCCC(O)CC(=O)N[C@@H](CCN)C(=O)N[C@H]1CCNC(=O)[C@H](CC(C)C)NC(=O)[C@H](CCN)NC(=O)[C@H](CCN)NC(=O)[C@H](CC(C)C)NC(=O)[C@@H](Cc2ccccc2)NC(=O)[C@H](CCN)NC1=O (stereo partly specified) [OCTAPEPTIN A1] | – | – | – | – | – | – | MIC (Escherichia coli [11]): 1.7 µg/mL (≈ 1.61 µM); MIC (Escherichia coli [12]): 0.3 µg/mL (≈ 0.283 µM)
8 | CCCCCCCC(=O)N[C@H](C(=O)N[C@@H](CCN)C(=O)N[C@H]1CCNC(=O)[C@H]([C@@H](C)O)NC(=O)[C@H](CCN)NC(=O)[C@H](CCN)NC(=O)[C@H](CC(C)C)NC(=O)[C@@H](Cc2ccccc2)NC(=O)[C@H](CCN)NC1=O)[C@@H](C)O (stereo in doubt; 80) [Octanoyl Polymixin B nonapeptide] | – | – | 0.03 µg/mL | – | 4 µg/mL | ≥ 16 | –
9 | CCCCCCCCC(=O)N[C@H](C(=O)N[C@@H](CCN)C(=O)N[C@H]1CCNC(=O)[C@H]([C@@H](C)O)NC(=O)[C@H](CCN)NC(=O)[C@H](CCN)NC(=O)[C@H](CC(C)C)NC(=O)[C@@H](Cc2ccccc2)NC(=O)[C@H](CCN)NC1=O)[C@@H](C)O | – | – | 0.5 µg/mL | – | 2 µg/mL | ≥ 16 | –
10 | CC(C)C[C@@H]1NC(=O)[C@@H](Cc2ccccc2)NC(=O)[C@H](CCN)NC(=O)[C@@H](NC(=O)[C@H](CCN)NC(=O)[C@@H](NC(=O)[C@H](Cc2c[nH]c3ccccc23)NC(=O)O)[C@@H](C)O)CCNC(=O)[C@H]([C@@H](C)O)NC(=O)[C@H](CCN)NC(=O)[C@H](CCN)NC1=O [DESFA-[TRP1]POLYMYXIN B] | 20 | 19 | 8 µM | 8 (≈ 9.55 µg/mL) | 8 µM | – | –
